Reference: patent US8507674B2, “Quorum sensing inhibitor” (The University of Tokyo, priority 2007, dated 2013)

Experiments:
Burkholderia glumae [1] = assay: Test Example 3: number of microorganisms versus culturing time and concentration; assay type: cell-based; settings: 80 μM or 100 μM, 20 to 40 hours culturing, FIG. 2
Experimental: Burkholderia glumae was inoculated into an LB culture medium, and cultured at 37° C. overnight. The thus-obtained culture solution was subjected to bacterial collection using a centrifuge, washed with an LB culture medium twice using a fresh LB culture medium each time. To the bacterial cell a fresh LB culture medium was added to prepare a culture suspension of about 3.0×10^5 cfu/mL. Thereafter, Compound (1) produced in Production Example 1 was added to the culture suspension in such a manner that its final concentration became a predetermined value (i.e., 0 μM, 80 μM, or 100 μM), followed by shake culturing for 40 hours. The number of microorganisms in the culture solution after a predetermined time (i.e., 20, 24, 28, 32, 36 and 40 hours) was obtained by the following procedure. Specifically, a portion of the culture solution was removed and diluted 1,000-fold, and then seeded to an LB culture medium agar plate. The number of colonies was counted to obtain the number of microorganisms.

Burkholderia glumae [2] = assay: Test Example 5: onset of infection on rice, test liquid sprayed before infection; assay type: in vivo; settings: for percentage of flower clusters with score 0: score 0 = less than 0.1% diseased; for percentage of flower clusters with score 0 / percentage of flower clusters with score 1 / percentage of flower clusters with score 2 / percentage of flower clusters with score 3 / percentage of flower clusters with score 4 / percentage of flower clusters with score 5: rice, 7 days; for percentage of flower clusters with score 1: score 1 = 0.1-20% diseased; for percentage of flower clusters with score 2: score 2 = 20-40% diseased; for percentage of flower clusters with score 3: score 3 = 40-60% diseased; for percentage of flower clusters with score 4: score 4 = 60-80% diseased; for percentage of flower clusters with score 5: score 5 = 80-100% diseased
Experimental: A dimethyl formamide solution (1,000 ppm) of Compound (1) was diluted with water to have a predetermined concentration (50, 100 or 200 μM) to prepare a test liquid. In a separate procedure, Burkholderia glumae were seeded to an LB culture medium and cultured overnight at 37° C., preparing a culture solution for infection.
Each test liquid (10 mL) was sprayed onto Korean rice (Milyang 23) raised in a hothouse until the flowering stage. The culture solution for infection was sprayed onto the rice one hour after the application of the test liquid. After cultivation for seven days, the onset of Burkholderia glumae infection on the rice was evaluated.
The evaluation was conducted by picking an ear from each plant, making a total of three ears. In each flower cluster (grain), the percentage of the portion that suffered from the onset of disease (i.e., the portion that turned brown) caused by the toxoflavin produced by Burkholderia glumae was visually observed and scored based on the scale shown below. The percentage of the total flower clusters was obtained and scored to indicate the onset of the disease.
The percentage that suffered from the onset of disease:
Not less than 0.1% and not greater than 20%: 1
Not less than 20% and not greater than 40%: 2
Not less than 40% and not greater than 60%: 3
Not less than 60% and not greater than 80%: 4
In this evaluation, three flower clusters (grains) having the same conditions were prepared, and reproducibility was confirmed by repeating the same evaluation three times. The same evaluation was also conducted as a comparative test except that water was used instead of the test liquid. Further, the same evaluation was conducted to serve as a blank except that water was used instead of both the test liquid and the culture solution for infection.

Burkholderia glumae [3] = assay: Test Example 4: amount of toxoflavin produced in culture solution; assay type: cell-based; settings: 0, 20, 40, 60, 80 or 100 μM, shake culturing 20 hours, FIG. 3
Experimental: Burkholderia glumae was inoculated into an LB culture medium, and cultured at 37° C. overnight. The thus-obtained culture solution was subjected to bacterial collection using a centrifuge, and washed with an LB culture medium twice using a fresh LB culture medium each time. To the bacterial cell a fresh LB culture medium was added, and then Compound (1) produced in Production Example 1 was added thereto in such a manner that its final concentration became a predetermined value (i.e., 0, 20, 40, 60, 80 or 100 μM), followed by shake culturing for 20 hours. The amount of toxoflavin produced by the bacterial cell in the culture solution was obtained by the following procedure.
Each culture solution was filtered by 0.22-μm membrane filter, and 1 mL of the filtrate was isolated. One mL of chloroform was added to the filtrate, followed by extraction. The thus-obtained chloroform layer was concentrated under reduced pressure, and an 80% (V/V) an aqueous methanol solution was added to and dissolved in the residue. The absorbance (at 260 nm) of the solution was measured, and the toxin doses were calculated from the calibration curve, which was obtained using a chemically synthesized standard toxin.

[4] = 50 μM sprayed 1 h before infection
[5] = 100 μM sprayed 1 h before infection
[6] = 200 μM sprayed 1 h before infection

CCCc1cc(=O)n2cccc(O)c2n1 [Compound (1), 2-n-propyl-9-hydroxy-4H-pyrid[1,2-a]pyrimidin-4-one]
control effect against Burkholderia glumae (number of microorganisms) (Burkholderia glumae [1]): excellent control effect
percentage of flower clusters with score 0 (Burkholderia glumae [2]; [4]): 68%
percentage of flower clusters with score 0 (Burkholderia glumae [2]; [5]): 80%
percentage of flower clusters with score 0 (Burkholderia glumae [2]; [6]): 82%
percentage of flower clusters with score 1 (Burkholderia glumae [2]; [4]): 7%
percentage of flower clusters with score 1 (Burkholderia glumae [2]; [5]): 6%
percentage of flower clusters with score 1 (Burkholderia glumae [2]; [6]): 6%
percentage of flower clusters with score 2 (Burkholderia glumae [2]; [4]): 6%
percentage of flower clusters with score 2 (Burkholderia glumae [2]; [5]): 4%
percentage of flower clusters with score 2 (Burkholderia glumae [2]; [6]): 6%
percentage of flower clusters with score 3 (Burkholderia glumae [2]; [4]): 7%
percentage of flower clusters with score 3 (Burkholderia glumae [2]; [5]): 3%
percentage of flower clusters with score 3 (Burkholderia glumae [2]; [6]): 2%
percentage of flower clusters with score 4 (Burkholderia glumae [2]; [4]): 6%
percentage of flower clusters with score 4 (Burkholderia glumae [2]; [5]): 3%
percentage of flower clusters with score 4 (Burkholderia glumae [2]; [6]): 2%
percentage of flower clusters with score 5 (Burkholderia glumae [2]; [4]): 6%
percentage of flower clusters with score 5 (Burkholderia glumae [2]; [5]): 4%
percentage of flower clusters with score 5 (Burkholderia glumae [2]; [6]): 2%
onset of Burkholderia glumae on rice (Burkholderia glumae [2]; test liquid 50, 100 or 200 μM sprayed before the culture solution for infection): prevented
toxin doses produced by bacteria (toxoflavin) (Burkholderia glumae [3]): remarkably decreased
